Laboratory results as given in paper PMC10819771 (Pharmaceuticals, 2023).
Where “and” joins values, the source holds several entries; their conditions need not be identical. Equal values may be shown once. Read-outs that look alike come from different tables or passages of the source.

Assays:
Fc-MYCT = experiment: FRET-melting, Fc-MYCT; format: binding; details: ligand 2 μM, DNA 0.2 μM, K+ conditions, pH 7.2
[1] = system: ds26 (DNA, duplex) CAATCGGATCGAATTCGATCCGATTG; experiment: native ESI-MS; details: 100 mM NH4+ (ammonium acetate), pH 6.8, 10 µM DNA, 20 µM ligand, first of two successive steps
MDA-MB-231 = experiment: MTT antiproliferative assay, MDA-MB-231; format: cell-based, human; details: for IC50: Homo sapiens, MDA-MB-231, 72 h, MTT, 72 h, breast cancer cells, read-out: IC50 Values (μM) ± SEM MDA-MB-231; for Selectivity Index HEK293/MDA-MB-231: IC50 HEK293 / IC50 MDA-MB-231
Procedure, shortened: (§1)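 Absorbance at 545 nm of DMSO-solubilised formazan, formed during a 4 h MTT incubation, was compared with untreated cells. Beforehand, cells had been treated for 72 h with six compound levels from 0.1 to 30.0 µM. At least two independent determinations used five parallel wells per condition.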

K562 = experiment: MTS cell proliferation assay, K562; format: cell-based, human; details: for IC50: Homo sapiens, K562, 72 h, MTS, 3-day incubation, leukemia cells, read-out: IC50 Values (μM) ± SEM K562; for Selectivity Index HEK293/K562: IC50 HEK293 / IC50 K562
Procedure, shortened: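 K562 cells in RPMI 1640 with 10% FCS were exposed in quadruplicate to 0, 1, 5, 10, 20 and 50 μM compound for 1, 2 and 3 days. Viability was read by MTS conversion after 3 h at 37 °C, measured at 490 nm. CC50 after 3 days was obtained by linear regression (μM ± SD).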

c-MYC = experiment: Native electrospray mass spectrometry, c-MYC; format: binding; details: 10 µM DNA, 20 µM ligand; for Bound DNA (%) c-MYC: 100 mM ammonium acetate
Description: (§2) These parameters ensured a good signal intensity without disrupting noncovalent complexes, which was verified using d[G4T4G4]2 as a control. Oligonucleotides were purchased lyophilized, and RP-cartridge purified from Eurogentec (Kanaka Eurogentec, Seraing, Belgium), then buffer exchanged with ammonium acetate (5 M; Sigma-Aldrich, Saint-Quentin-Fallavier, France) using Amicon Ultra (3 K cut-off; Merck Millipore, Cork, Ireland). Sample solutions were prepared by diluting the proper volume of oligonucleotide stock solutions to reach 10 µM of DNA and 20 µM of ligand, in 100 mM ammonium acetate. The solutions were incubated for 16 h at 4 °C before analysis. Kd were calculated as already described.

MCF-7 = experiment: MTT antiproliferative assay, MCF-7; format: cell-based, human; details: for IC50: Homo sapiens, MCF7, 72 h, MTT, 72 h, breast cancer cells, read-out: IC50 Values (μM) ± SEM MCF-7; for Selectivity Index HEK293/MCF-7: IC50 HEK293 / IC50 MCF-7
Procedure, shortened: as §1

FBCL-2T = experiment: FRET-melting, FBCL-2T; format: binding; details: ligand 2 μM, DNA 0.2 μM, 10 mM KCl, 90 mM LiCl, pH 7.2
A2780 = experiment: MTT antiproliferative assay, A2780; format: cell-based, human; details: for IC50: Homo sapiens, A2780, MTT, 72 h, ovarian cancer cells, read-out: IC50 Values (μM) ± SEM A2780; for Selectivity Index HEK293/A2780: IC50 HEK293 / IC50 A2780
Procedure, shortened: as §1

FK-RAST = experiment: FRET-melting, FK-RAST; format: binding; details: ligand 2 μM, DNA 0.2 μM, 10 mM KCl, 90 mM LiCl, pH 7.2
BCL-2 = experiment: Native electrospray mass spectrometry, BCL-2; format: binding; details: 10 µM DNA, 20 µM ligand; for Bound DNA (%) BCL-2: 100 mM ammonium acetate
Description: as §2

[2] = system: c-MYC (DNA, G4) TGAGGGTGGGTAGGGTGGGTAA; experiment: native ESI-MS; details: 100 mM NH4+ (ammonium acetate), pH 6.8, 10 µM DNA, 20 µM ligand, first of two successive steps
[3] = system: human telomeric sequence F21T; experiment: FRET-melting, F21T; format: binding; details: ligand 2 μM, DNA 0.2 μM, 10 mM KCl, 90 mM LiCl, pH 7.2
[4] = first binding event (1:1 complex), read-out: Kd1 c-MYC
[5] = second binding event (2:1 complex), read-out: Kd2 c-MYC
[6] = first binding event (1:1 complex), read-out: Kd1 BCL-2
[7] = second binding event (2:1 complex), read-out: Kd2 BCL-2

Structure (SMILES)	ΔT1/2 (°C) Fc-MYCT (Fc-MYCT)	IC50 (MDA-MB-231)	Selectivity Index HEK293/MDA-MB-231 (MDA-MB-231)	IC50 (K562)	Selectivity Index HEK293/K562 (K562)	Bound DNA (%) c-MYC (c-MYC)	Kd (c-MYC; [4])	Kd (c-MYC; [5])	IC50 (MCF-7)	Selectivity Index HEK293/MCF-7 (MCF-7)	ΔT1/2 (°C) FBCL-2T (FBCL-2T)	IC50 (A2780)	Selectivity Index HEK293/A2780 (A2780)	ΔT1/2 (°C) FK-RAST (FK-RAST)	Bound DNA (%) BCL-2 (BCL-2)	Kd (BCL-2; [6])	Kd (BCL-2; [7])	ΔT1/2 (°C) F21T [3]	other results
CN(C)CCCNCc1ccc(-c2nc(-c3ccc(CNCCCN(C)C)cc3)c3cc(-c4ccccc4)ccc3n2)cc1 [Compound 12b, 2,4-bis{4-[(3-dimethylaminopropyl)aminomethyl]phenyl}-6-phenylquinazoline]	5.8 ± 0.9 °C	0.7 ± 0.16 µM	>42.8	14 ± 0.3 µM	>2.14	70%	5.8 µM	100 µM	0.58 ± 0.02 µM	>51.7	8.9 ± 0.7 °C	1.2 ± 0.27 µM	>25.0	17.4 ± 0.6 °C	79%	5.6 µM	2.8 µM		Kd1 ([1]; Kd2 130): 17 µM; Kd1 ([2]; Kd2 100): 5.8 µM
CN1CCN(CCCCNCc2ccc(-c3nc(-c4ccc(CNCCCCN5CCN(C)CC5)cc4)c4cc(-c5ccccc5)ccc4n3)cc2)CC1 [Compound 12e, 2,4-bis{4-[(4-(4-methylpiperazin-1-yl)butyl)aminomethyl]phenyl}-6-phenylquinazoline]	19.5 °C and 19.5 ± 1.0 °C	0.89 ± 0.46 µM		13 ± 0.2 µM		75%	4.3 µM	74 µM	1.27 ± 0.01 µM		22.7 °C and 22.7 ± 0.4 °C	2.19 ± 0.41 µM		33.1 °C and 33.1 ± 2.1 °C	79%	6.2 µM	2.2 µM	33.9 °C and 33.9 ± 0.5 °C	Kd1 ([1]; Kd2 280): 30 µM; Kd1 ([2]; Kd2 74): 4.3 µM
CN(C)CCCNCc1ccc(-c2cc(-c3ccc(CNCCCN(C)C)cc3)c3cc(-c4ccccc4)ccc3n2)cc1 [Compound 13a, 2,4-bis{4-[(3-dimethylaminopropyl)aminomethyl]phenyl}-6-phenylquinoline]	7.3 ± 1.0 °C	0.58 ± 0.02 µM	>51.7	10 ± 0.4 µM	>3.0	78%	3.8 µM	36 µM	0.54 ± 0.01 µM	>55.5	7.7 ± 0.6 °C	0.9 ± 0.04 µM	>33.3	15.0 ± 0.3 °C	92%	1.6 µM	0.75 µM	21.5 ± 0.4 °C	Kd1 ([1]; Kd2 95): 14 µM; Kd1 ([2]; Kd2 36): 3.8 µM
CN1CCN(CCCCNCc2ccc(-c3cc(-c4ccc(CNCCCCN5CCN(C)CC5)cc4)c4cc(-c5ccccc5)ccc4n3)cc2)CC1 [Compound 13d, 2,4-bis{4-[(4-(4-methylpiperazin-1-yl)butyl)aminomethyl]phenyl}-6-phenylquinoline]	10.6 ± 0.7 °C	1.64 ± 0.11 µM		14 ± 0.3 µM		44%	20 µM	440 µM	1.62 ± 0.09 µM		5.0 ± 1.1 °C	2.1 ± 0.09 µM		12.7 ± 2.2 °C	33%	53 µM	20 µM	8.0 ± 1.5 °C	Kd1 ([1]; Kd2 460): 85 µM; Kd1 ([2]; Kd2 440): 20 µM
